Active and inactive are the calls of the source.
Experiments:
[1] = test system: BJ; experiment: cytotoxicity toward BJ-TERT fibroblasts, dose response, cell-based, RAS-independent, luminescence (AID 1933); assay type: functional; settings: Homo sapiens
[2] = test system: BJ; experiment: cells; assay type: functional, cell-based; settings: Homo sapiens
[3] = growth suppression of PTEN-null colon cells, dose response, cell-based, HCT116 PTEN knockout (AID 1047); assay type: functional;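 further: HCT116 colon tumor cells with PTEN knocked out; cells exposed to compound for 60 hours before readout; potency for loss of cell viability measured by luminescence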
[4] = growth suppression of beta-catenin-knockout colon cells, dose response, cell-based, HCT116, human colon tumor (AID 1045); assay type: functional;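 further: HCT116 colon tumor cells with beta catenin knocked out; cells exposed to compound for 60 hours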
[5] = test system: BJ; experiment: cytotoxicity toward BJ-TERT-LT-ST fibroblasts, dose response, cell-based, RAS-independent, luminescence (AID 1935); assay type: functional; settings: Homo sapiens;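 further: BJ fibroblasts immortalized with TERT plus LT and ST oncogenes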
[6] = cytotoxicity toward DRD oncogenic fibroblasts, dose response, cell-based, non-viral oncogenic, luminescence (AID 1934); assay type: functional; settings: Homo sapiens
[7] = biological target: Induced myeloid leukemia cell differentiation protein Mcl-1 (Homo sapiens, UniProt Q07820); assay type: functional
[8] = test system: BJ; experiment: cytotoxicity toward Ras-transformed BJeLR fibroblasts, dose response, cell-based, alamar blue fluorescence, cherrypicked samples (AID 2631); assay type: functional; settings: Homo sapiens;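 further: confirmatory dose-response assay in RAS-dependent BJ fibroblasts engineered with TERT, LT and ST, with cytotoxicity read by fluorescence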
[9] = THP-1 cell cytotoxicity, dose response, cytotoxicity control for Vif-APOBEC3G degradation inhibitor project, THP-1 cells (AID 1117359); assay type: functional; settings: Human immunodeficiency virus 1, THP-1
[10] = microbe, parasite or virus in culture; assay type: functional; settings: Mycobacterium tuberculosis
[11] = biological target: T1, Replicative DNA helicase DnaB (Mycobacterium tuberculosis, UniProt P9WMR3); experiment: DnaB intein splicing inhibitors, dose response, biochemical, cell-free fluorescence (AID 449749); assay type: functional
T1 sequence (P9WMR3 whole entry): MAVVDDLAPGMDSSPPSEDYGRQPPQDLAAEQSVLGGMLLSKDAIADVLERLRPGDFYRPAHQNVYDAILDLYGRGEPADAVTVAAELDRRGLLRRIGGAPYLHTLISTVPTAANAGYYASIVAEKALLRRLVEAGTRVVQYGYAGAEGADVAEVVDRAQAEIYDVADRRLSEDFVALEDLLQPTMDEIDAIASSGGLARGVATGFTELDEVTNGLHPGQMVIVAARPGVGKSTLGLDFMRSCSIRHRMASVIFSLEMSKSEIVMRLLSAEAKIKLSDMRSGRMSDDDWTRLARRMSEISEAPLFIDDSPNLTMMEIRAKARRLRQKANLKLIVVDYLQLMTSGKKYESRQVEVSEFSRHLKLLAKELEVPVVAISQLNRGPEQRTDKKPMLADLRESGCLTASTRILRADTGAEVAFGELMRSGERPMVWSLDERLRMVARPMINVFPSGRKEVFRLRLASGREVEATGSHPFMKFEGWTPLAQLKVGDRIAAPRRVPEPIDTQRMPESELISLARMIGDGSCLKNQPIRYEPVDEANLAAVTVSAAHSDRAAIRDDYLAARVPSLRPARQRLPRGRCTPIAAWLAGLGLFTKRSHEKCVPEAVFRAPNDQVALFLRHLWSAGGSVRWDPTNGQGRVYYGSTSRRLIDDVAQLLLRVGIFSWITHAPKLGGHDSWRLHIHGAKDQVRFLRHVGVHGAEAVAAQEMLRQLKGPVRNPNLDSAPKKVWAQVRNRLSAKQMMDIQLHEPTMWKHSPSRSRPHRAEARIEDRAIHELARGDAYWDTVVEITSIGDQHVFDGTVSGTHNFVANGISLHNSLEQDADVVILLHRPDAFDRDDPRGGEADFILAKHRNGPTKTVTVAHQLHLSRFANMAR

[12] = biological target: T2, Protein RecA (Mycobacterium tuberculosis, UniProt P9WHJ3); experiment: Fluorescence Cell-Free Homogeneous Dose Retest to Identify Inhibitors of RecA-Intein Splicing Activity. [Related pubchem assays (depositor defined):AID2097, AID2223, AID489010, AID492950]; assay type: functional
T2 sequence (P9WHJ3 whole entry): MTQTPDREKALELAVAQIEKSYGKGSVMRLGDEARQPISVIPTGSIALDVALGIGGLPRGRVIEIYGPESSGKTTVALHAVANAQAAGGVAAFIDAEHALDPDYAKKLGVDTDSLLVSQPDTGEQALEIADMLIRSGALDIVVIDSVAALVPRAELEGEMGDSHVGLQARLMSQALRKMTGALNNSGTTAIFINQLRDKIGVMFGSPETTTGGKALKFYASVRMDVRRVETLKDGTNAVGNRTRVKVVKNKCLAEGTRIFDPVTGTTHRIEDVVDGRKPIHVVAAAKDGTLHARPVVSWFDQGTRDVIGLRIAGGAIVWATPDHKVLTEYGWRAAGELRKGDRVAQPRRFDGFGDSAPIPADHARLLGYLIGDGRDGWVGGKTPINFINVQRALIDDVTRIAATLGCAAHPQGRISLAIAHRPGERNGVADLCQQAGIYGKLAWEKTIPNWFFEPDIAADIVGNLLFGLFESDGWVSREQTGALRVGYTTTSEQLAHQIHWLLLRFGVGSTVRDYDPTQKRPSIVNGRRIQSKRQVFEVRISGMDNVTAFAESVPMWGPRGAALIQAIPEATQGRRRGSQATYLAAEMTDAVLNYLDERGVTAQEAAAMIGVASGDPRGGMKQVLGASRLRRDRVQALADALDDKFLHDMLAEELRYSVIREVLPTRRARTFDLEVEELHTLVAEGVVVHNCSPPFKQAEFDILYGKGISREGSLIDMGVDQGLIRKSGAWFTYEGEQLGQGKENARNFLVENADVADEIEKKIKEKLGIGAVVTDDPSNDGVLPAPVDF

[13] = biological target: T3, Adenosylmethionine-8-amino-7-oxononanoate aminotransferase (Mycobacterium tuberculosis, UniProt P9WQ81); experiment: Mycobacterium tuberculosis BioA enzyme inhibitor Measured in Biochemical System Using Plate Reader - 2163-02_Inhibitor_Dose_CherryPick_Activity.; assay type: functional, Mycobacterium tuberculosis UT205
T3 sequence (P9WQ81 whole entry): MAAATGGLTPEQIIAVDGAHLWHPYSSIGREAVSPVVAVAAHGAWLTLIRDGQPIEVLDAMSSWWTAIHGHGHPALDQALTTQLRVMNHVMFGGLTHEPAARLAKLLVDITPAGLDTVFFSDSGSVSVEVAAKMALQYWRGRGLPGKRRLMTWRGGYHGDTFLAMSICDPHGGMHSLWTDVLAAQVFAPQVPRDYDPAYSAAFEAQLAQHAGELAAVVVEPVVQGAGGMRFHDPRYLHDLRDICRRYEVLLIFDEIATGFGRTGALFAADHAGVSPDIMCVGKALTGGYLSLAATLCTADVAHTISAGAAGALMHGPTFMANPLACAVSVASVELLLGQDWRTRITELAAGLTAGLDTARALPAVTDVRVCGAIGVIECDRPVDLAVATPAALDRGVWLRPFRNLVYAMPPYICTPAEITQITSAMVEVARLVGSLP

[14] = biological target: FAD-linked sulfhydryl oxidase ALR (Homo sapiens, UniProt P55789); experiment: inhibitors of human ALR sulfhydryl oxidase, dose response, biochemical, H2O2 detection, luminescence, cherry-pick (AID 493248)
[15] = test system: HEK293; experiment: NOD1 signaling inhibitors, primary screen, cell-based, luminescence, uHTS (AID 1578); assay type: functional; settings: Homo sapiens
[16] = test system: Streptococcus sp. 'group A'; experiment: growth inhibition of control SK(-) GAS strain, dose response, counter-screen for streptokinase expression inhibitor project, luminescence, kanamycin, BacTiterGlo, confirmation (AID 1900); assay type: functional, organism-based
[17] = test system: HEK293; experiment: cells; assay type: functional, cell-based; settings: Homo sapiens
[18] = test system: HEK293; experiment: cells; assay type: functional, cell-based; settings: Homo sapiens; remark: listed apart in the source
[19] = test system: HEK293; experiment: NOD2 signaling inhibitors in MDP-stimulated cells, cell-based, uHTS, luminescence (AID 2001); assay type: functional; settings: Homo sapiens
[20] = test system: Streptococcus; experiment: Group A Streptococcus viability loss, dose response, counter-screen for streptokinase expression inhibitor project, luminescence, BacTiterGlo (AID 1915); assay type: functional, organism-based;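 further: potency for reduction of bacterial viability or growth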
[21] = biological target: T4, Short transient receptor potential channel 4 (Mus musculus, UniProt Q9QUQ5); experiment: mouse TRPC4 channel activators, dose response, cell-based, HEK293 TRPC4/mu-opioid, Fluo-4 calcium (AID 434937); assay type: functional
T4 sequence (Q9QUQ5 whole entry): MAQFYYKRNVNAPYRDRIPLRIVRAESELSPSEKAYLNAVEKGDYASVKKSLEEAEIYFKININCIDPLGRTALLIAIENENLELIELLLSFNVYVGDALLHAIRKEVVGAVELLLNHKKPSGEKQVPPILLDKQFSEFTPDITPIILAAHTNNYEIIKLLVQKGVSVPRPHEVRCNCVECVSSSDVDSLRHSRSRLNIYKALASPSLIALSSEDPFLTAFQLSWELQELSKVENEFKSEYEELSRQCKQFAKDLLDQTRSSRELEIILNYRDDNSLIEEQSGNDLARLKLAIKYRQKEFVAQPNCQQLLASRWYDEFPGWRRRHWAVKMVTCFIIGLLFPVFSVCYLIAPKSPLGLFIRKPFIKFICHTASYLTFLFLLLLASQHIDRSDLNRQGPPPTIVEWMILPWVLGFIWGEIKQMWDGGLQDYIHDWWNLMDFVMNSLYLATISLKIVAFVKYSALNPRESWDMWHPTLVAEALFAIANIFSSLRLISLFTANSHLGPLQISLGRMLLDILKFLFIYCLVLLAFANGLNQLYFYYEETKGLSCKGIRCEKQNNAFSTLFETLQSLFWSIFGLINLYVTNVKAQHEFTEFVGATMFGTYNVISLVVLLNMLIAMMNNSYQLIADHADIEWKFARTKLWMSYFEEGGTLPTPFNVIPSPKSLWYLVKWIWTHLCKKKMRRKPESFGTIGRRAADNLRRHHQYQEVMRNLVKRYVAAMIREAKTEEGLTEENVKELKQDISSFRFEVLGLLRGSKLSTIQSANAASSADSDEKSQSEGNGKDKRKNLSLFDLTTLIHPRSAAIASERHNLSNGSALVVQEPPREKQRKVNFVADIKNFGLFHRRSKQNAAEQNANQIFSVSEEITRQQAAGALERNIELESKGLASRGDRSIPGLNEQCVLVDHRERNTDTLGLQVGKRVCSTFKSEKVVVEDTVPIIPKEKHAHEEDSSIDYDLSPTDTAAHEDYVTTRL

[22] = biological target: T5, High affinity choline transporter 1 (Homo sapiens, UniProt Q9GZV3); experiment: CHT inhibitors, dose response, cell-based, 5-point CRC, membrane potential dye (AID 504840); assay type: functional
T5 sequence (Q9GZV3 whole entry): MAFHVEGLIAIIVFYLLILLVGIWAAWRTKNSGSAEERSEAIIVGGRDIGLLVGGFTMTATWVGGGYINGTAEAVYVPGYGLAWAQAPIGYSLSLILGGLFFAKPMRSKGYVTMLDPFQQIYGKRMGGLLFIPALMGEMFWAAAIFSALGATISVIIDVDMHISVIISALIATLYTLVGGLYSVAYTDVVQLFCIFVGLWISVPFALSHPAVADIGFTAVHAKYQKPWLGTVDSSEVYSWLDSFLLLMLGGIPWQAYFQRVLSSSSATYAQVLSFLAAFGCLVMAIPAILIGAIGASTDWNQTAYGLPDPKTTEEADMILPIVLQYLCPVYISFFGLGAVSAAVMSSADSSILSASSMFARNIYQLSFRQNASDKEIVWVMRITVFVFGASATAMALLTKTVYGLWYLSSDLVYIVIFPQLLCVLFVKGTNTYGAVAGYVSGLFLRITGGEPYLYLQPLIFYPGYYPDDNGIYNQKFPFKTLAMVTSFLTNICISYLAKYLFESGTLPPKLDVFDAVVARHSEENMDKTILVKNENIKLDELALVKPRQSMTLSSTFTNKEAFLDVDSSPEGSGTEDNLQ

Chain of Induced myeloid leukemia cell differentiation protein Mcl-1 (Q07820 whole entry): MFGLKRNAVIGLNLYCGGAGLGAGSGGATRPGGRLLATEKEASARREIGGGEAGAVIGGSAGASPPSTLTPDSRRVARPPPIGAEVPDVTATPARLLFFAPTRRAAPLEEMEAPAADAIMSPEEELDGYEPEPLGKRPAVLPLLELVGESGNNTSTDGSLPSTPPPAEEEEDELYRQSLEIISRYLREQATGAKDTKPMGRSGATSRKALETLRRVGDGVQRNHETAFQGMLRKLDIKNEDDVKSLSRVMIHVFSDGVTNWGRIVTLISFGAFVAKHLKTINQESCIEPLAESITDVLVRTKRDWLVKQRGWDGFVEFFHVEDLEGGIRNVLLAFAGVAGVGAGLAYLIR
Chain of FAD-linked sulfhydryl oxidase ALR (P55789 whole entry): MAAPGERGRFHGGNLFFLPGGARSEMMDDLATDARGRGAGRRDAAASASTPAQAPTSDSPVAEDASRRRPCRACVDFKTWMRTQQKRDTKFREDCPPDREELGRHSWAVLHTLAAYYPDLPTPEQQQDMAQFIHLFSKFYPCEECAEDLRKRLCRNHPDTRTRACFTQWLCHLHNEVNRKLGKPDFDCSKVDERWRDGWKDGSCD

For CCOc1ccccc1Nc1nc(-c2sc(NC(=O)c3ccc([N+](=O)[O-])cc3)nc2C)cs1, the EC50 [1] was 7.64 µM (active), the EC50 [2] was 12.7 µM (active) and the EC50 [3] was 9.09 µM (active). The EC50 [4] was 7.38 µM (active), the EC50 [5] was > 150 µM (inconclusive) and the EC50 [6] was 7.92 µM (active). The IC50 [7] was 13.4 µM (active) and the EC50 [8] was > 133 µM (inactive).

In the case of COc1ccc(C)cc1Nc1c2c(nc3ccccc13)CCC2, the EC50 [1] is reported as 3.98 µM (inconclusive), the EC50 [2] is reported as 15.1 µM (inconclusive) and the EC50 [5] is reported as 1 µM (inconclusive). For the same molecule, the EC50 [6] was 7.71 µM (inconclusive), the EC50 [8] was 0.174 µM (active) and the CC50 [9] was 0.62 µM (active).

With Cc1ccc(C2CC(c3cccs3)=NN2C(=O)CCl)cc1 (stereo not given) the EC50 [1] was 0.911 µM (active), the EC50 [2] was 5.54 µM (active) and the CC50 [10] was 2.24 µM (active). The EC50 [5] was 6 µM (active), the EC50 [6] was 5.15 µM (inconclusive) and the AC50 [11] was 1.23 µM (active). For the same molecule, the EC50 [8] was 2.87 µM (active) and the EC50 [12] was 0.943 µM (active).

In the case of Cc1cc(C(=O)CSc2nncs2)c(C)n1-c1ccc2c(c1)OCO2, the AC50 [13] is reported as 1.67 µM (active).

With COc1ccc(NC2c3ccccc3C(=O)N2c2cccnc2)cc1Cl (stereo not given) the AC50 [14] was 4.34 µM (active) and the AC50 [13] was 4.04 µM (active).

In the case of O=c1c2cc(Br)ccc2nc(-c2ccc(Cl)cc2)n1O, the EC50 [15] is reported as 6.02 µM (active), the EC50 [16] is reported as 1.24 µM (active) and the IC50 [17] is reported as > 20 µM (inactive). For the same molecule, the IC50 [18] was > 20 µM (inactive), the IC50 [19] was 14.2 µM (inactive) and the EC50 [20] was 2.6 µM (active). For the same molecule, the EC50 [21] was 6.68 µM (active) and the IC50 [22] was 5.01 µM (active).

For CC(=O)N1CC[C@@H]2[C@@H](CO)N(C)c3ccc(-c4cccc(F)c4)cc3[C@@H]21, the AC50 [13] was 0.832 µM (active).

In the case of COc1cc(C(=O)Nc2cccnc2)cc(OC)c1OC, the AC50 [13] is reported as 2.14 µM (active).
